# From patent US20220281859A1, “HETEROCYCLIC COMPOUNDS AS KINASE INHIBITORS” (Nuvation Bio Inc., priority 2019, published 2022)
# How the values were obtained:
# [1] = biological target: T1, CDK6 (Homo sapiens, UniProt Q00534); assay: In vitro kinase inhibition IC50, luminescence (ADP Glo) with retinoblastoma as substrate; type: biochemical; conditions: ATP 25 μM, 2H at room temperature
# T1 construct: purchased Invitrogen PR8422B
# Method: (§1) IC50 values of compounds against CDK4 and CDK6 were determined by luminescence using retinoblastoma as substrate. Kinase assays were performed in kinase buffer (#PV6135, Invitrogen, Life Technologies Grand Island, N.Y.) where total reaction volume was 30 μL/well in 96-well half area white plates (#3693, Costar). One microliter of 25×test compounds at specific concentrations (e.g., final concentration range: 0.1 nM-200 nM) was mixed with 10 μL of 2.5×kinase (5 nM, CDK4 #PR8064A and CDK6 #PR8422B, Invitrogen) solution and 14 μL of 4× mixed solution with retinoblastoma (1 μM, #12-439, EMD Millipore, Hayward, Calif.) and ATP (25 μM, #V7038, Promega, Madison, Wis.). The plates were covered and incubated for 2H at room temperature. At the end of incubation, 25 μL of stop solution—ADP Glo reagent (#V7002, Promega) was added. After incubation for 45 min at room temperature, 50 μL of detection reagent (##V7002, Promega) was added. Readings were taken at 15 min and 45 min incubation after detection reagent was added in a Synergy Neo Plate reader (BioTek, Winooski, Vt.) at single excitation of 340 nm and Dual emission at 495 nm and 520 nm respectively. The following equations were used in the CDK4 and CDK6 assay data analysis. Percent inhibition (100-% activity) was fitted to the “four-parameter logistic model” in XLfit for determination of IC50 values.
# (§2) Percent conversion of enzyme=100−{(RLUNo Drug−No enzyme*100)/RLUNo drug+Enzyme} Equation 1
# (§3) Percent conversion at each data point=100−{(RLUAverage(Drug+enzyme)*100)/RLUNo drug+Enzyme} Equation 2
# (§4) Percent Inhibition=100*(% Conversioneach data point/% ConversionEnzyme) Equation 3
# [2] = biological target: T2, CDK4 (Homo sapiens, UniProt P11802); assay: as above; type: biochemical; conditions: ATP 25 μM, 2H at room temperature
# T2 construct: purchased Invitrogen PR8064A
# Method: as §1, §2, §3, §4
# [3] = test system: DU4475; assay: Cancer cell proliferation assay as a single agent (cell viability); type: cell-based; conditions: Homo sapiens, DU-4475; DU4475 breast carcinoma, Rb Negative, 144H treatment
# Method: (§5) The effects of test compounds were studied in two breast cancer cell lines of different subtype. The cancer cells (Table 3) were harvested during the logarithmic growth period and counted. Cell concentrations were adjusted to the appropriate number with respective medium and 90 μL cell suspensions were added to 96-well plates. After cells were seeded, the plates were shaken gently to distribute cells evenly and incubated at 37° C., 5% CO2 on day 1.
# (§6) Cells were treated with test compounds at 7 to 9 concentrations within a desired concentration range (e.g. 1.1 nM-10 μM) on day 2 by series diluting the test compound stock solution (10 mM in DMSO) with culture medium. Treatment duration was 144H (with a medium change at 72H) for both MCF-7 and DU4475 cells. Cell viability was assessed by Cell Titer-Glo® as recommended by Promega (Cat. No.: G7572), or by resazurin assay (Sigma Aldrich, Cat. No.: R7017) post treatment.
# (§7) Cell viability data were plotted using GraphPad Prism (GraphPad Software, Inc., San Diego, Calif.). In addition, a nonlinear regression model with a sigmoidal dose response and variable slope within GraphPad Prism was used to calculate the IC50 value of individual test compounds.
# [4] = test system: MCF-7; assay: as above; type: cell-based; conditions: Homo sapiens, MCF7; MCF-7 breast adenocarcinoma, Rb Positive, 144H treatment
# Method: as §5, §6, §7
# [5] = biological target: T3, CDK1 (cyclin B) (Homo sapiens, UniProt P06493); assay: Z'-LYTE kinase inhibition IC50; type: biochemical; conditions: ATP 34 μM, 60 minutes at room temperature
# T3 construct: purchased Invitrogen Life Technologies (assay run at the vendor)
# Method: IC50 values of compounds against CDK1 (cyclin B) were determined by Z′-LYTE™. These screening assays were performed at Invitrogen Life Technologies (Grand Island, N.Y.) on a low volume NBS, black 384-well plate (#4514, Corning). 0.1 μL of 100× test compound in 100% DMSO (at specific solutions) was mixed with 2.4 μL of Kinase Buffer (50 mM HEPES pH 7.5, 0.01% BRIJ-35, 10 mM MgCl2, 1 mM EGTA), 5 μL of 2× Kinase (3.5-46.4 ng CDK1/cyclin B)/Peptide (2 μM Ser/Thr 18), and 2.5 μL of 4×ATP solution (34 μM). The plates were shaken for 30 seconds, and incubated for 60 minutes at room temperature. Development Reagent Solution (5 μL of 1:1024 dilution) was added to the plates followed with another 30-second plate shake, and the plates were further incubated at room temperature for one hour. The plates were read on fluorescence plate reader with Dual emission at 445 nm and 520 nm.
# (§8) The following equations were used for Z′-LYTE™ Screening Assay Data Analysis. Percent inhibition (100-% activity) was fitted to the “four-parameter logistic model” in XLfit for determination of IC50 values.
# [6] = biological target: T4, CDK2 (cyclin A) (Homo sapiens, UniProt P24941); assay: Z'-LYTE kinase inhibition IC50; type: biochemical; conditions: ATP 31 μM, 60 minutes at room temperature
# T4 construct: purchased Invitrogen Life Technologies (assay run at the vendor)
# Method: IC50 values of compounds against CDK2 (cyclin A) were determined by Z′-LYTE™. These screening assays were performed at Invitrogen Life Technologies (Grand Island, N.Y.) on a low volume NBS, black 384-well plate (#4514, Corning). 0.1 μL of 100× test compound in 100% DMSO (at specific solutions) was mixed with 2.4 μL of Kinase Buffer (50 mM HEPES pH 7.5, 0.01% BRIJ-35, 10 mM MgCl2, 1 mM EGTA), 5 μL of 2× Kinase (1.22-10.3 ng CDK2/cyclin A)/Peptide (2 μM Ser/Thr 12), and 2.5 μL of 4×ATP solution (31 μM). The plates were shaken for 30 seconds, and incubated for 60 minutes at room temperature. Development Reagent Solution (5 μL of 1:1024 dilution) was added to the plates followed with another 30-second plate shake and the plates were further incubated at room temperature for one hour. The plates were read on fluorescence plate reader with Dual emission at 445 nm and 520 nm.
# as §8
# T1 sequence (Q00534 whole entry): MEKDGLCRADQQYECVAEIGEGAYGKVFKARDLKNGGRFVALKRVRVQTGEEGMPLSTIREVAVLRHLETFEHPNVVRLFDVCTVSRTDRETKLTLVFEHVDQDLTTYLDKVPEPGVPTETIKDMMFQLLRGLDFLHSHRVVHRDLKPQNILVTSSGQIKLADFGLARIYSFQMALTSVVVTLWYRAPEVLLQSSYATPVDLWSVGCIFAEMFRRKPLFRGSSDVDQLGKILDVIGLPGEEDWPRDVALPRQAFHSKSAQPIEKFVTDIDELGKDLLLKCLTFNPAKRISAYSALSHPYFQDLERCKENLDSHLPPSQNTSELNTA
# T1 sequence (P24385 whole entry partner): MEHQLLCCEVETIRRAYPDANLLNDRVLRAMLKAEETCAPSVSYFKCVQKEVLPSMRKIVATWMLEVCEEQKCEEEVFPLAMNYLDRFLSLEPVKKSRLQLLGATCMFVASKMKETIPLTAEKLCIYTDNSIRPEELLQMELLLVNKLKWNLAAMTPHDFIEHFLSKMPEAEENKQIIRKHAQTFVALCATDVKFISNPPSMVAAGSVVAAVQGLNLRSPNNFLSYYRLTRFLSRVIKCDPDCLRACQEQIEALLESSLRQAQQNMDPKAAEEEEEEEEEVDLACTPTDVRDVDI
# T2 sequence (P11802 whole entry): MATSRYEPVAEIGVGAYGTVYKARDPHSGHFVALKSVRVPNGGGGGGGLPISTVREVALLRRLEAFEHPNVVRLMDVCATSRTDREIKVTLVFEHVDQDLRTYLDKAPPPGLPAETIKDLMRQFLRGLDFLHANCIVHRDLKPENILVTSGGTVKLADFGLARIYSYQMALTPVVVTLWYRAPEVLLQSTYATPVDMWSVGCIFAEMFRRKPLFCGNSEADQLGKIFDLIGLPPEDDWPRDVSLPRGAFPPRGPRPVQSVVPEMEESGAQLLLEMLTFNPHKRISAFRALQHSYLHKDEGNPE
# T2 sequence (P24385 whole entry partner): as the sequence (P24385 whole entry partner) above
# T3 sequence (P06493 whole entry): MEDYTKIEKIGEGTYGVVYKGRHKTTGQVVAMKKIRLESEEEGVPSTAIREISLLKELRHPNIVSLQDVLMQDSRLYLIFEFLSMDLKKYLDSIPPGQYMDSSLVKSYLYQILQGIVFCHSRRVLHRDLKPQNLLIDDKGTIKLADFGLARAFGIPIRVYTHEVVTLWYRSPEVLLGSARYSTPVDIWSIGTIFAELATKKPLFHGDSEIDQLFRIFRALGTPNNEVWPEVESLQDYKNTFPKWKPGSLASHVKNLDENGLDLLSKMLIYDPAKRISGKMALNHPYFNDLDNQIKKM
# T3 sequence (P14635 whole entry partner): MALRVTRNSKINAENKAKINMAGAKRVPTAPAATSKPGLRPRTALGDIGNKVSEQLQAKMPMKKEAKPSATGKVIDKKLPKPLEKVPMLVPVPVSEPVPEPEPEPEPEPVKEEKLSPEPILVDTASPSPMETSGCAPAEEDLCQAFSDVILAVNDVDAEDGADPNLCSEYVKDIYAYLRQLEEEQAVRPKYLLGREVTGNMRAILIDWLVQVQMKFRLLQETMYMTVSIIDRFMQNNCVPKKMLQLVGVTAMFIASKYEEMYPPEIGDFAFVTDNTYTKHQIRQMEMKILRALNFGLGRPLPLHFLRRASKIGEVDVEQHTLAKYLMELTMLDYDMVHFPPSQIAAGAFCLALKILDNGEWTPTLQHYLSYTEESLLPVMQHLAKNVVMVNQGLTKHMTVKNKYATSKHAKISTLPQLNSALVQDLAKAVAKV
IC50 [1],IC50 [2],IC50 [3],IC50 [4],IC50 [5],IC50 [6],SMILES
> 200 nM,> 190 nM,130 nM,80 nM,–,–,"CC(C)N1CCOc2c(F)cc(-c3nc(Nc4nc5cc(C6=CCNCC6)ccc5s4)ncc3F)cc21 [Compound 120, N-(5-fluoro-4-(8-fluoro-4-isopropyl-3,4-dihydro-2H-benzo[b][1,4]oxazin-6-yl)pyrimidin-2-yl)-5-(1,2,3,6-tetrahydropyridin-4-yl)benzo[d]thiazol-2-amine]"
24 nM,15 nM,1490 nM,3440 nM,7 nM,15 nM,"CC(C)N1CCOc2c(F)cc(-c3nc(Nc4ccc5[nH]nc(C6CCNCC6)c5c4)ncc3F)cc21 [Compound 59, N-(5-fluoro-4-(8-fluoro-4-isopropyl-3,4-dihydro-2H-benzo[b][1,4]oxazin-6-yl)pyrimidin-2-yl)-3-(piperidin-4-yl)-1H-indazol-5-amine]"
